#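 Protocol summary: plate cells (96-well), add compound at 5 concentrations, incubate 48 h, interpolate endpoints linearly. At the GI50, growth is halved.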 Active and inactive are the calls of the source. Cut-off read from the data, not from the text of the source: active = GI50 up to about 1.1 µM and inactive = higher.
# What was measured:
# Assay in all cases: DTP human tumour cell line panel, 48 h
# [1] = tested on: XF498
# [2] = tested on: M19-MEL
# [3] = tested on: DMS-273
# [4] = tested on: DLD-1
# [5] = tested on: PC-3
# [6] = tested on: BT-549
# [7] = tested on: LXFL 529
# [8] = tested on: RXF 631
# [9] = tested on: 786-0
SMILES,GI50 [1],GI50 [2],GI50 [3],GI50 [4],GI50 [5],GI50 [6],also measured
C[C@H](CN1CC(=O)NC(=O)C1)N1CC(=O)NC(=O)C1,> 100 µM (inactive),> 100 µM (inactive),> 100 µM (inactive),> 86.5 µM (inactive),–,–,–
CCOC(=O)N1CCN(C(=O)Nc2cccc3ccccc23)CC1,–,–,–,–,> 10 µM (inactive),–,–
OCC(CO)CC1COc2ccccc2O1 (centres undefined),–,–,–,–,> 10 µM (inactive),–,–
O=C1C2=C(C3=NCCc4c[nH]c1c43)C1(C=C(Br)C(O)C(Br)=C1)CCN2 (centres undefined),7.67 µM (inactive),0.38 µM (active),1.03 µM (active),1.67 µM (inactive),–,–,–
CC(C)C1OC(=O)/C=C/C=C/C=C/C=C/C=C/CC(O)C(C)C(O)CC(O)CC(O)CC(O)CC(O)CC(O)CC(O)/C=C/C1C (centres undefined),–,–,–,–,> 100 µM (inactive),–,–
CNC(=O)SCC(NC(=O)CCC(N)C(=O)O)C(=O)NCC(=O)O (centres undefined),> 100 µM (inactive),> 100 µM (inactive),> 83.9 µM (inactive),> 83 µM (inactive),–,–,–
CC(C)=CCc1c(C)cc2cc3c(c(O)c2c1O)C(=O)C=C(O)C3(CC=C(C)C)C/C=C(\C)CO (centres undefined),16.4 µM (inactive),37.4 µM (inactive),52.8 µM (inactive),32.7 µM (inactive),–,–,–
CCOC(=O)C1(C(=O)OCC)CSC1,–,–,–,–,> 100 µM (inactive),–,–
N#Cc1c(NC(=S)Nc2ccc(Cl)cc2)sc2c1CCCC2,–,–,–,–,> 100 µM (inactive),> 100 µM (inactive),–
CC(=O)OC/C=C\Cn1nc(Br)c(=O)[nH]c1=O,–,–,–,–,13.2 µM (inactive),9.77 µM (inactive),–
FC(F)(F)C1=NC(=NNc2nnc(-c3ccccc3)c(-c3ccccc3)n2)N=C(C(F)(F)F)C1,20 µM (inactive),21.8 µM (inactive),5.86 µM (inactive),12.6 µM (inactive),–,–,–
ICC1CCCO1 (centres undefined),> 100 µM (inactive),–,> 100 µM (inactive),> 100 µM (inactive),–,–,GI50 [7]: > 100 µM (inactive); GI50 [8]: > 100 µM (inactive)
NC(=O)Nc1ccc(C(=O)NCCCNC(=O)c2ccc(NC(N)=O)cc2)cc1,–,–,–,–,> 100 µM (inactive),> 100 µM (inactive),–
CC(=O)OC1CCn2c1nc1cc([N+](=O)[O-])c(C)cc12 (centres undefined),–,–,–,–,> 100 µM (inactive),> 100 µM (inactive),GI50 [9]: > 100 µM (inactive)
O=C1C=C(N2CC2)C(=O)C=C1N1CC1,0.105 µM (active),–,0.0617 µM (active),0.117 µM (active),1.11 µM (active),0.348 µM (active),GI50 [7]: 0.159 µM (active)
